Measured values reported in ChEMBL document CHEMBL4177586, “Small molecule adjuvants that suppress both chromosomal and mcr-1 encoded colistin-resistance and amplify colistin efficacy in polymyxin-susceptible bacteria” (Bioorg Med Chem, 2017).
In brackets after ≈: the same amount, converted by molar mass. Activity calls are given as the source filed them. No cut-off for these calls is given here.

What was measured:
[1] = tested on: Acinetobacter baumannii; experiment: Potentiation of colistin-induced antimicrobial activity against multidrug resistant Acinetobacter baumannii 5075 assessed as minimum drug concentration needed to cause colsitin MIC of 0.125 ug/ml incubated for overnight duration by CLSI based method; assay type: functional
[2] = tested on: Escherichia coli; experiment: Potentiation of colistin-induced antimicrobial activity against Escherichia coli ATCC 25922 expressing mcr1 gene assessed as reduction in colistin MIC at 30 uM incubated for overnight duration by CLSI based method relative to colistin alone control; assay type: functional
[3] = tested on: Acinetobacter baumannii; experiment: Reduction in lipid A modification in Acinetobacter baumannii ATCC 17978 at 30 uM incubated for 24 hrs by MALDI-TOF mass spectrometry; assay type: functional, organism-based
[4] = tested on: Klebsiella pneumoniae; experiment: Toxicity against Klebsiella pneumoniae 2210291 incubated for overnight duration by CLSI based method; assay type: organism-based; settings: in vivo
[5] = tested on: Escherichia coli; experiment: Potentiation of colistin-induced antimicrobial activity against Escherichia coli YD626 expressing mcr1 gene assessed as colistin MIC at 15 uM incubated for overnight duration by CLSI based method (reference value: 4 ug/ml); assay type: functional
[6] = tested on: Acinetobacter baumannii; experiment: Toxicity against Acinetobacter baumannii SM1536 expressing mcr1 gene incubated for overnight duration by CLSI based method; assay type: organism-based; settings: in vivo
[7] = tested on: Escherichia coli; experiment: Toxicity against Escherichia coli YD626 expressing mcr1 gene incubated for overnight duration by CLSI based method; assay type: organism-based; settings: in vivo
[8] = tested on: Acinetobacter baumannii; experiment: Toxicity against Acinetobacter baumannii ATCC 17978 expressing mcr1 gene incubated for overnight duration by CLSI based method; assay type: organism-based; settings: in vivo
[9] = tested on: Escherichia coli; experiment: Toxicity against Escherichia coli ATCC 25922 expressing mcr1 gene incubated for overnight duration by CLSI based method; assay type: organism-based; settings: in vivo
[10] = tested on: Klebsiella pneumoniae; experiment: Toxicity against Klebsiella pneumoniae 2210291 expressing mcr1 gene incubated for overnight duration by CLSI based method; assay type: organism-based; settings: in vivo
[11] = tested on: Acinetobacter baumannii; experiment: Potentiation of colistin-induced antimicrobial activity against Acinetobacter baumannii ATCC 17978 expressing mcr1 gene assessed as reduction in colistin MIC at 15 uM incubated for overnight duration by CLSI based method relative to colistin alone control; assay type: functional
[12] = tested on: Escherichia coli; experiment: Potentiation of colistin-induced antimicrobial activity against Escherichia coli ATCC 25922 expressing mcr1 gene assessed as colistin MIC at 15 uM incubated for overnight duration by CLSI based method (reference value: 8 ug/ml); assay type: functional
[13] = tested on: Acinetobacter baumannii; experiment: Potentiation of colistin-induced antimicrobial activity against colistin-resistant Acinetobacter baumannii PM4119 assessed as colistin MIC at 30 uM incubated for overnight duration by CLSI based method (reference value: 1024 ug/ml); assay type: functional
[14] = tested on: Acinetobacter baumannii; experiment: Potentiation of colistin-induced antimicrobial activity against colistin-resistant Acinetobacter baumannii PM4112 assessed as colistin MIC at 15 uM incubated for overnight duration by CLSI based method (reference value: 1024 ug/ml); assay type: functional
[15] = tested on: Acinetobacter baumannii; experiment: Potentiation of colistin-induced antimicrobial activity against colistin-resistant Acinetobacter baumannii PM4112 assessed as colistin MIC at 60 uM incubated for overnight duration by CLSI based method (reference value: 1024 ug/ml); assay type: functional
[16] = tested on: Klebsiella pneumoniae; experiment: Potentiation of colistin-induced antimicrobial activity against colistin-resistant Klebsiella pneumoniae C3 assessed as reduction in colistin MIC at 15 uM incubated for overnight duration by CLSI based method relative to colistin alone control; assay type: functional
[17] = tested on: Klebsiella pneumoniae; experiment: Potentiation of colistin-induced antimicrobial activity against colistin-resistant Klebsiella pneumoniae C5 assessed as colistin MIC at 30 uM incubated for overnight duration by CLSI based method (reference value: 128 ug/ml); assay type: functional
[18] = tested on: Acinetobacter baumannii; experiment: Potentiation of colistin-induced antimicrobial activity against Acinetobacter baumannii SM1536 expressing mcr1 gene assessed as reduction in colistin MIC at 60 uM incubated for overnight duration by CLSI based method relative to colistin alone control; assay type: functional
[19] = tested on: Acinetobacter baumannii; experiment: Potentiation of colistin-induced antimicrobial activity against colistin-resistant Acinetobacter baumannii PM3942 assessed as reduction in colistin MIC at 15 uM incubated for overnight duration by CLSI based method relative to colistin alone control; assay type: functional
[20] = tested on: Acinetobacter baumannii; experiment: Potentiation of colistin-induced antimicrobial activity against Acinetobacter baumannii SM1536 expressing mcr1 gene assessed as colistin MIC at 60 uM incubated for overnight duration by CLSI based method (reference value: 64 ug/ml); assay type: functional
[21] = tested on: Escherichia coli; experiment: Potentiation of colistin-induced antimicrobial activity against Escherichia coli ATCC 25922 expressing mcr1 gene assessed as colistin MIC at 60 uM incubated for overnight duration by CLSI based method (reference value: 8 ug/ml); assay type: functional
[22] = tested on: Acinetobacter baumannii; experiment: Potentiation of colistin-induced antimicrobial activity against Acinetobacter baumannii ATCC 17978 expressing mcr1 gene assessed as reduction in colistin MIC at 60 uM incubated for overnight duration by CLSI based method relative to colistin alone control; assay type: functional
[23] = tested on: Acinetobacter baumannii; experiment: Potentiation of colistin-induced antimicrobial activity against colistin-resistant Acinetobacter baumannii PM4112 assessed as colistin MIC at 30 uM incubated for overnight duration by CLSI based method (reference value: 1024 ug/ml); assay type: functional
[24] = tested on: Klebsiella pneumoniae; experiment: Potentiation of colistin-induced antimicrobial activity against colistin-resistant Klebsiella pneumoniae C3 assessed as colistin MIC at 15 uM incubated for overnight duration by CLSI based method (reference value: 512 ug/ml); assay type: functional
[25] = tested on: Klebsiella pneumoniae; experiment: Potentiation of colistin-induced antimicrobial activity against colistin-resistant Klebsiella pneumoniae B9 assessed as colistin MIC at 30 uM incubated for overnight duration by CLSI based method (reference value: 512 ug/ml); assay type: functional
[26] = tested on: Klebsiella pneumoniae; experiment: Potentiation of colistin-induced antimicrobial activity against colistin-resistant Klebsiella pneumoniae C3 assessed as reduction in colistin MIC at 30 uM incubated for overnight duration by CLSI based method relative to colistin alone control; assay type: functional
[27] = tested on: Acinetobacter baumannii; experiment: Potentiation of colistin-induced antimicrobial activity against colistin-resistant Acinetobacter baumannii PM4119 assessed as reduction in colistin MIC at 60 uM incubated for overnight duration by CLSI based method relative to colistin alone control; assay type: functional
[28] = tested on: Klebsiella pneumoniae; experiment: Potentiation of colistin-induced antimicrobial activity against colistin-resistant Klebsiella pneumoniae C3 assessed as colistin MIC at 30 uM incubated for overnight duration by CLSI based method (reference value: 512 ug/ml); assay type: functional
[29] = tested on: Klebsiella pneumoniae; experiment: Potentiation of colistin-induced antimicrobial activity against colistin-resistant Klebsiella pneumoniae B9 assessed as colistin MIC at 15 uM incubated for overnight duration by CLSI based method (reference value: 512 ug/ml); assay type: functional
[30] = tested on: Acinetobacter baumannii; experiment: Potentiation of colistin-induced antimicrobial activity against colistin-resistant Acinetobacter baumannii PM3941 assessed as colistin MIC at 60 uM incubated for overnight duration by CLSI based method (reference value: 512 ug/ml); assay type: functional
[31] = tested on: Klebsiella pneumoniae; experiment: Potentiation of colistin-induced antimicrobial activity against colistin-resistant Klebsiella pneumoniae B9 assessed as colistin MIC at 60 uM incubated for overnight duration by CLSI based method (reference value: 512 ug/ml); assay type: functional
[32] = tested on: Acinetobacter baumannii; experiment: Potentiation of colistin-induced antimicrobial activity against colistin-resistant Acinetobacter baumannii PM3941 assessed as reduction in colistin MIC at 15 uM incubated for overnight duration by CLSI based method relative to colistin alone control; assay type: functional
[33] = tested on: Acinetobacter baumannii; experiment: Toxicity against multidrug resistant Acinetobacter baumannii 5075 incubated for overnight duration by CLSI based method; assay type: organism-based; settings: in vivo

## CCCCCCc1ccc(-c2cn(C(C)C)c(N)n2)cc1
[1]
  MIC: 20 µM
[2]
  fold change (FC): 512
[3]
  Activity: Active
[4]
  MIC: 200 µM (≈ 57.1 µg/mL)
[5]
  MIC: 2 µg/mL
[6]
  MIC: > 200 µM
[7]
  MIC: > 200 µM
[8]
  MIC: > 200 µM
[9]
  MIC: > 200 µM
[10]
  MIC: > 200 µM
[11]
  fold change (FC): 4
[12]
  MIC: 8 µg/mL

## CCCCCc1ccc(C(=O)NCCn2cc(CCCCCc3cnc(N)n3Cc3ccc(CCCC)cc3)nn2)cc1
[13]
  MIC: 4 µg/mL
[1]
  MIC: 10 µM
[14]
  MIC: 32 µg/mL
[2]
  fold change (FC): 32
[15]
  MIC: 8 µg/mL
[16]
  fold change (FC): 8
[17]
  MIC: 4 µg/mL
[18]
  fold change (FC): 64
[4]
  MIC: > 200 µM
[19]
  fold change (FC): 16
[20]
  MIC: 1 µg/mL
[21]
  MIC: 0.031 µg/mL
[22]
  fold change (FC): 64
[5]
  MIC: 0.063 µg/mL
[23]
  MIC: 16 µg/mL
[24]
  MIC: 64 µg/mL
[25]
  MIC: 8 µg/mL
[26]
  fold change (FC): 32
[27]
  fold change (FC): 512
[28]
  MIC: 16 µg/mL
[29]
  MIC: 32 µg/mL
[30]
  MIC: 8 µg/mL
[31]
  MIC: 4 µg/mL
[32]
  fold change (FC): 16
[11]
  fold change (FC): 8
[12]
  MIC: 0.5 µg/mL

## CCCCCCc1ccc(-c2cn(CC)c(N)n2)cc1
[1]
  MIC: 15 µM
[2]
  fold change (FC): >2048
[33]
  MIC: 200 µM (≈ 54.3 µg/mL)
[4]
  MIC: > 200 µM
[5]
  MIC: 0.5 µg/mL
[6]
  MIC: > 200 µM
[7]
  MIC: 100 µM (≈ 27.1 µg/mL)
[8]
  MIC: > 200 µM
[9]
  MIC: 50 µM (≈ 13.6 µg/mL)
[10]
  MIC: > 200 µM
[11]
  fold change (FC): 4
[12]
  MIC: 4 µg/mL
